Tests used:
[1] = system: Mycobacterium terrae; assay: AOAC tuberculocidal test, kill time; format: cell-based
Excerpt: These standards are based on the known or possible risk of contamination of a particular medical device by a particular micro-organism, the pathogenic nature of the organism and other principles in infection control. […] The test panels and criteria are different for “low”, “intermediate” or “high-level disinfection”. These terms are herein used in accordance with current Food and Drug Administration (“FDA”) criteria for levels of disinfection which are detailed in Premarket Notification [510(k)] Submissions for Liquid Chemical Sterilants and High Level Disinfectants FDA 1997: “A germicide that inactivates all microbial pathogens except large number of bacterial endospores when used according to labelling”. In brief, the FDA regulatory requirement for high level disinfectants includes as the most challenging test a 100% kill of Mycobacterium tuberculosis var. bovis (or a specific strain of a suitable surrogate, such as Mycobacterium terrae) in 400 p.p.m. hard water in the presence of 2% horse serum in a quantitative tuberculocidal test.
In the following tables unless otherwise specified references to “kill time” mean the time required to achieve complete kill as defined in the relevant AOAC test (more particularly identified in annexure 1). “No kill” means less than 2 log reduction from the initial population. Unless otherwise specified “QUAT” is benzalkonium chloride, specifically Gardiquat NC-50 (Albright & Wilson). Test points for vegetative bacteria (M. terrae) were 2, 5, 10, 20 and 60 mins. Test points for spores were 0.5, 1, 2, 4, 16, 24, 48 hours. The last column in each table indicates whether the tested combination satisfies the FDA requirement for high level disinfection (“HLD”) or fails to do so (“F”).
AOAC tests for determination of High level Disinfection as defined in current FDA criteria (detailed in “Premarket Notification [510(k)] Submissions for Liquid Chemical Sterilants and High Level Disinfectants FDA 1993”.):
AOAC Tuberculocidal Activity of Disinfectants
AOAC Ref No 965.12, AOAC Official Methods of Analysis (1995)

[2] = system: B. subtilis spores; assay: AOAC sporicidal test, kill time; format: cell-based; conditions: for B. subtilis (no kill): 48 hrs
[3] = Table 3 Prior art, 0.25% QUAT, 25° C.
[4] = Table 6 unnumbered test, 2% QUAT + 0.2% Protease (Savinase 16 L), 25° C. + 1% borax
[5] = test 3.4, 0.25% QUAT, 62° C. + ultrasound
[6] = test 4.1, 2% QUAT, 25° C. + 1% borax
[7] = test 4.2, 5% QUAT, 25° C. + 1% borax
[8] = test 4.3, 1% QUAT, 40° C. + 1% borax
[9] = test 4.4, 2% QUAT, 40° C. + 1% borax
[10] = test 4.5, 5% QUAT, 40° C. + 1% borax
[11] = test 4.6, 2% QUAT, 50° C. + 1% borax
[12] = test 4.7, 5% QUAT, 50° C. + 1% borax
[13] = test 5.1, 1% QUAT, 40° C. + ultrasound 10 min each hour
[14] = test 5.2, 2% QUAT, 40° C. + ultrasound 10 min each hour
[15] = test 5.3, 5% QUAT, 40° C. + ultrasound 10 min each hour
[16] = test 5.4, 1% QUAT, 40° C. + ultrasound 10 min each hour
[17] = test 5.5, 2% QUAT + 1% borax, 40° C. + ultrasound 10 min each hour
[18] = test 5.6, 5% QUAT + 1% borax, 40° C. + ultrasound 10 min each hour
[19] = test 5.7, 2% QUAT + 1% borax + Protease, 40° C. + ultrasound 10 min each hour
[20] = test 6.1, 2% QUAT + 0.2% Protease (Savinase 16 L), 25° C.
[21] = test 6.2, 2% QUAT + 0.2% Protease (Savinase 16 L), 40° C.
[22] = test 6.3, 2% QUAT + 0.2% Protease (Savinase 16 L), 40° C. + 1% borax
[23] = test 6.4, 2% QUAT + 0.2% Protease (Savinase 16 L), 50° C.
[24] = test 6.5, 2% QUAT + 0.2% Protease (Savinase 16 L), 50° C. + 1% borax
[25] = test 6.6, 2% QUAT + 0.2% Protease (Savinase 16 L), 40° C. + ultrasound 10 min each hour + 1% borax
[26] = test 6.7, 2% QUAT + 1% borax + Protease, 40° C. + ultrasound 10 min each hour

Substance: benzalkonium chloride [QUAT]
- Kill Time M. terrae [1, 3]: >60 min
- Kill Time M. terrae [1, 4]: >60 min
- kill time of Mycobacterium terrae ([1]; above 1% w/w of quat, 40° C.): less than 5 mins
- Kill Time Mycobacterium terrae ([1]; test 1.1, 0.025% QUAT, 25° C.): >60 min
- Kill Time Mycobacterium terrae ([1]; test 1.2, 0.25% QUAT, 25° C.): >60 min
- Kill Time Mycobacterium terrae ([1]; test 2.1, 5% QUAT, 30° C.): <5 min
- Kill Time Mycobacterium terrae ([1]; test 2.2, 1.0% QUAT, 40° C.): <5 min
- Kill Time Mycobacterium terrae ([1]; test 2.3, 2.0% QUAT, 40° C.): <5 min
- Kill Time Mycobacterium terrae ([1]; test 2.4, 5.0% QUAT, 40° C.): <5 min
- Kill Time Mycobacterium terrae ([1]; test 2.5, 1.0% QUAT, 50° C.): <5 min
- Kill Time Mycobacterium terrae ([1]; test 2.6, 2.0% QUAT, 50° C.): <5 min
- Kill Time Mycobacterium terrae ([1]; test 2.7, 5.0% QUAT, 50° C.): <5 min
- Kill Time Mycobacterium terrae ([1]; test 2.8, 1.0% QUAT, 80° C.): <5 min
- Kill Time M. terrae ([1]; test 3.1, 0.25% QUAT, 40° C.): >60 min
- Kill Time M. terrae ([1]; test 3.2, 0.25% QUAT, 50° C.): >60 min
- Kill Time M. terrae ([1]; test 3.3, 0.25% QUAT, 60° C.): >60 min
- Kill Time M. terrae [1, 5]: >60 min
- Kill Time M. terrae ([1]; test 3.5, 1.0% QUAT, 25° C.): >60 min
- Kill Time M. terrae ([1]; test 3.6, 2.0% QUAT, 25° C.): >60 min
- Kill Time M. terrae ([1]; test 3.7, 5.0% QUAT, 25° C.): >60 min
- Kill Time M. terrae ([1]; test 3.8, 0.6%, 40° C.): >60 min
- Kill Time M. terrae ([1]; test 3.9, 0.6% QUAT, 50° C.): >20 min
- Kill Time M. terrae [1, 6]: >60 min
- Kill Time M. terrae [1, 7]: >60 min
- Kill Time M. terrae [1, 8]: <5 min
- Kill Time M. terrae [1, 9]: <2 min
- Kill Time M. terrae [1, 10]: <2 min
- Kill Time M. terrae [1, 11]: <2 min
- Kill Time M. terrae [1, 12]: <2 min
- Kill Time M. terrae [1, 13]: <5 min
- Kill Time M. terrae [1, 14]: <5 min
- Kill Time M. terrae [1, 15]: <5 min
- Kill Time M. terrae [1, 16]: <5 min
- Kill Time M. terrae [1, 17]: <2 min
- Kill Time M. terrae [1, 18]: <2 min
- Kill Time M. terrae [1, 19]: <2 min
- Kill Time M. terrae [1, 20]: >60 min
- Kill Time M. terrae [1, 21]: <5 min
- Kill Time M. terrae [1, 22]: <2 min
- Kill Time M. terrae [1, 23]: <5 min
- Kill Time M. terrae [1, 24]: <2 min
- Kill Time M. terrae [1, 25]: <2 min
- Kill Time M. terrae [1, 26]: <2 min
- Kill Time B. subtilis [2, 3]: >24 h
- Kill Time B. subtilis [2, 4]: >48 h
- B. subtilis (no kill) [2, 4]: (no kill) (“No kill” means less than 2 log reduction from the initial population)
- kill time of B. subtilis ([2]; above 1% w/w of quat, 40° C.): less than 2 hours
- Kill Time B. subtilis ([2]; test 1.1, 0.025% QUAT, 25° C.): >24 h
- Kill Time B. subtilis ([2]; test 1.2, 0.25% QUAT, 25° C.): >24 h
- Kill Time B. subtilis ([2]; test 2.1, 5% QUAT, 30° C.): <2 h
- Kill Time B. subtilis ([2]; test 2.2, 1.0% QUAT, 40° C.): <2 h
- Kill Time B. subtilis ([2]; test 2.3, 2.0% QUAT, 40° C.): <2 h
- Kill Time B. subtilis ([2]; test 2.4, 5.0% QUAT, 40° C.): <1 h
- Kill Time B. subtilis ([2]; test 2.5, 1.0% QUAT, 50° C.): <1 h
- Kill Time B. subtilis ([2]; test 2.6, 2.0% QUAT, 50° C.): <1 h
- Kill Time B. subtilis ([2]; test 2.7, 5.0% QUAT, 50° C.): <1 h
- Kill Time B. subtilis ([2]; test 2.7, 5.0% QUAT, 50° C., listed as quat): less than one hour
- Kill Time B. subtilis ([2]; test 2.8, 1.0% QUAT, 80° C.): <1 h
- Kill Time B. subtilis ([2]; test 2.8, 1.0% QUAT, 80° C., listed as quat): less than one hour
- Kill Time B. subtilis ([2]; test 3.1, 0.25% QUAT, 40° C.): >24 h
- Kill Time B. subtilis ([2]; test 3.2, 0.25% QUAT, 50° C.): >24 h
- Kill Time B. subtilis ([2]; test 3.3, 0.25% QUAT, 60° C.): >24 h
- Kill Time B. subtilis [2, 5]: >24 h
- Kill Time B. subtilis ([2]; test 3.5, 1.0% QUAT, 25° C.): >48 h
- B. subtilis (no kill) ([2]; test 3.5, 1.0% QUAT, 25° C.): (no kill) (“No kill” means less than 2 log reduction from the initial population)
- Kill Time B. subtilis ([2]; test 3.6, 2.0% QUAT, 25° C.): >48 h
- B. subtilis (no kill) ([2]; test 3.6, 2.0% QUAT, 25° C.): (no kill) (“No kill” means less than 2 log reduction from the initial population)
- Kill Time B. subtilis ([2]; test 3.7, 5.0% QUAT, 25° C.): >48 h
- B. subtilis (no kill) ([2]; test 3.7, 5.0% QUAT, 25° C.): (no kill) (“No kill” means less than 2 log reduction from the initial population)
- Kill Time B. subtilis ([2]; test 3.8, 0.6%, 40° C.): >24 h
- Kill Time B. subtilis ([2]; test 3.9, 0.6% QUAT, 50° C.): <16 h
- Kill Time B. subtilis [2, 6]: >48 h
- B. subtilis (no kill) [2, 6]: (no kill) (“No kill” means less than 2 log reduction from the initial population)
- Kill Time B. subtilis [2, 7]: >48 h
- B. subtilis (no kill) [2, 7]: (no kill) (“No kill” means less than 2 log reduction from the initial population)
- Kill Time B. subtilis [2, 8]: <1 h
- Kill Time B. subtilis [2, 9]: <1 h
- Kill Time B. subtilis [2, 10]: <1 h
- Kill Time B. subtilis [2, 11]: <1 h
- Kill Time B. subtilis [2, 12]: <1 h
- Kill Time B. subtilis [2, 13]: <2 h
- Kill Time B. subtilis [2, 14]: <1 h
- Kill Time B. subtilis [2, 15]: <1 h
- Kill Time B. subtilis [2, 16]: <1 h
- Kill Time B. subtilis [2, 17]: <1 h
- Kill Time B. subtilis [2, 18]: <1 h
- Kill Time B. subtilis [2, 19]: <1 h
- Kill Time B. subtilis [2, 20]: >48 h
- B. subtilis (no kill) [2, 20]: (no kill) (“No kill” means less than 2 log reduction from the initial population)
- Kill Time B. subtilis [2, 21]: <2 h
- Kill Time B. subtilis [2, 22]: <1 h
- Kill Time B. subtilis [2, 23]: <1 h
- Kill Time B. subtilis [2, 24]: <1 h
- Kill Time B. subtilis [2, 25]: <1 h
- Kill Time B. subtilis [2, 26]: <1 h
